In article PMC8536124 (International Journal of Molecular Sciences, 2021):

Legend:
OVCAR-5 = test: NCI-60 screening (SRB); type: cell-based, human; settings: five-dose
SNB-19 = test: NCI-60 screening (SRB); type: cell-based, human; settings: five-dose
SN12C = test: NCI-60 screening (SRB); type: cell-based, human; settings: five-dose
SF-539 = test: NCI-60 screening (SRB); type: cell-based, human
COLO 205 = test: NCI-60 screening (SRB); type: cell-based, human; settings: five-dose
OVCAR-3 = test: NCI-60 screening (SRB); type: cell-based, human; settings: five-dose
MDA-MB-468 = test: NCI-60 screening (SRB); type: cell-based, human; settings: five-dose
T-47D = test: NCI-60 screening (SRB); type: cell-based, human; settings: five-dose
Melanoma = test: NCI-60 screening (SRB), subpanel; type: cell-based
Description: (§1) The experimental data allow the assessment of the cytostatic effect, indicated by growth inhibition values ranging between 0 and 100, as well as of the cytotoxic effect, indicated by negative values.
(§2) The mean GI50 (molar concentration of the compound that inhibits 50% net cell growth), TGI (molar concentration of the compound leading to the total inhibition), and LC50 (molar concentration of the compound leading to 50% net cell death (presented in negative logarithm)) values across each cell line are shown in Table 2.
(§3) The selectivity index (SI), calculated as the ratio between the full panel MG_MID60 (μM) of compounds 4, 6, and 9 by their respective subpanels MG_MID of the cell line (μM), was introduced as a quantification tool for the selectivity of each compound in terms of anticancer effect (Table 3).
(§4) Primary anticancer assays were performed according to the NCI protocol, as described elsewhere (see e.g., http://dtp.nci.nih.gov accessed on 1 November 2018). The compounds were added at a single concentration, and the cell cultures were incubated for 48 h. The end point determinations were made with a protein-binding dye, sulforhodamine B (SRB). […] The percentage of growth was evaluated spectrophotometrically versus controls not treated with test agents after 48 h exposure and using SRB protein assay to estimate cell viability or growth. Three antitumor activity dose-response parameters were calculated for each cell line. Furthermore, mean graph midpoints (MG_MID) were calculated for each of the parameters, giving an average activity parameter over all cell lines for the tested compound. For the MG_MID calculation, insensitive cell lines were included with the highest concentration tested.

Breast cancer = test: NCI-60 screening (SRB), subpanel; type: cell-based
Description: as §1, §2, §3, §4

HCT-15 = test: NCI-60 screening (SRB); type: cell-based, human; settings: five-dose
TK-10 = test: NCI-60 screening (SRB); type: cell-based, human; settings: five-dose
A498 = test: NCI-60 screening (SRB); type: cell-based, human; settings: A498, five-dose
HCC-2998 = test: NCI-60 screening (SRB); type: cell-based, human; settings: five-dose
SF-268 = test: NCI-60 screening (SRB); type: cell-based, human; settings: five-dose
HOP-62 = test: NCI-60 screening (SRB); type: cell-based, human; settings: five-dose
HOP-92 = test: NCI-60 screening (SRB); type: cell-based, human; settings: five-dose
HS 578T = test: NCI-60 screening (SRB); type: cell-based, human; settings: five-dose
ACHN = test: NCI-60 screening (SRB); type: cell-based, human; settings: five-dose
U251 = test: NCI-60 screening (SRB); type: cell-based, human; settings: U251, five-dose
UACC-257 = test: NCI-60 screening (SRB); type: cell-based, human; settings: five-dose
KM12 = test: NCI-60 screening (SRB); type: cell-based, human; settings: five-dose
UACC-62 = test: NCI-60 screening (SRB); type: cell-based, human; settings: five-dose
IGROV1 = test: NCI-60 screening (SRB); type: cell-based, human
SK-OV-3 = test: NCI-60 screening (SRB); type: cell-based, human; settings: five-dose
MALME-3M = test: NCI-60 screening (SRB); type: cell-based, human
[1] = Homo sapiens, read-out: LC50 (the source's name)

## CCN1CCN(C(=O)[C@]23CC[C@@H](C)[C@H](C)[C@H]2C2=CC[C@@H]4[C@@]5(C)CCC(=O)C(C)(C)[C@@H]5CC[C@@]4(C)[C@]2(C)CC3)CC1 [Compound 4, N-(3-oxo-ursan-12-en-28-oyl)-ethylpiperazine]
OVCAR-5; Homo sapiens
  GI50: 0.907 µM
OVCAR-5; [1]
  CC50: 3.87 µM
OVCAR-5
  TGI: 1.87 µM
SNB-19; Homo sapiens
  GI50: 0.849 µM
SNB-19; [1]
  CC50: 3.47 µM
SNB-19
  TGI: 1.72 µM
SN12C; Homo sapiens
  GI50: 0.776 µM
SN12C; [1]
  CC50: 2.81 µM
SN12C
  TGI: 1.48 µM
SF-539; Homo sapiens, SF-539, five-dose
  GI50: 0.843 µM
SF-539; Homo sapiens, SF-539, five-dose, read-out: LC50 (the source's name)
  CC50: 2.8 µM
SF-539; SF-539, five-dose
  TGI: 1.54 µM
SF-539; SF-539 CNS cancer, 1 dose 10 µM
  Growth %: −97.21%
COLO 205; Homo sapiens
  GI50: 1.02 µM
COLO 205; [1]
  CC50: 14.5 µM
COLO 205
  TGI: 2.37 µM
OVCAR-3; Homo sapiens
  GI50: 1.1 µM
OVCAR-3; [1]
  CC50: 6.52 µM
OVCAR-3
  TGI: 2.44 µM
MDA-MB-468; Homo sapiens
  GI50: 0.931 µM
MDA-MB-468; [1]
  CC50: 9.27 µM
MDA-MB-468
  TGI: 2.32 µM
T-47D; Homo sapiens, T47D
  GI50: 1.33 µM
  LC50 (concentration killing 50% of cells): > 50 µM
T-47D
  TGI: 3.89 µM
Melanoma; Homo sapiens, Melanoma subpanel, five-dose, read-out: GI50 MG_MID
  GI50: 0.93 µM
Melanoma; Homo sapiens, Melanoma subpanel, five-dose, read-out: LC50 MG_MID
  CC50: 4.94 µM
Melanoma; Melanoma subpanel, five-dose
  TGI MG_MID: 1.93 µM
Melanoma; Melanoma, MG_MID60/subpanel MG_MID
  SI (TGI): 1.42
Breast cancer; Breast cancer subpanel, five-dose
  TGI MG_MID: 2.33 µM
Breast cancer; Breast cancer, MG_MID60/subpanel MG_MID
  SI (TGI): 1.17
Breast cancer; Homo sapiens, Breast cancer subpanel, five-dose, read-out: GI50 MG_MID
  GI50: 0.97 µM
Breast cancer; Homo sapiens, Breast cancer subpanel, five-dose, read-out: LC50 MG_MID
  CC50: 16.1 µM
HCT-15; Homo sapiens
  GI50: 0.977 µM
HCT-15; [1]
  CC50: 7.41 µM
HCT-15
  TGI: 2.39 µM
TK-10; Homo sapiens
  GI50: 1.27 µM
TK-10; [1]
  CC50: 20.3 µM
TK-10
  TGI: 4.14 µM
A498
  TGI: 2.42 µM
A498; Homo sapiens
  GI50: 0.927 µM
A498; [1]
  CC50: 7.92 µM
HCC-2998; Homo sapiens
  GI50: 0.922 µM
HCC-2998; [1]
  CC50: 3.6 µM
HCC-2998
  TGI: 1.82 µM
SF-268; Homo sapiens
  GI50: 1.77 µM
SF-268; [1]
  CC50: 24.6 µM
SF-268
  TGI: 6.49 µM
HOP-62; Homo sapiens
  GI50: 1.38 µM
  LC50: > 50 µM
HOP-62
  TGI: 3.09 µM
HOP-92; Homo sapiens
  GI50: 0.713 µM
HOP-92; [1]
  CC50: 8.22 µM
HOP-92
  TGI: 2.06 µM
HS 578T; Homo sapiens
  GI50: 1.07 µM
HS 578T; [1]
  CC50: 26.5 µM
HS 578T
  TGI: 2.68 µM
ACHN; Homo sapiens
  GI50: 1.33 µM
  LC50: 14.8 µM
ACHN
  TGI: 4.38 µM
U251; Homo sapiens, U-251
  GI50: 0.854 µM
U251; Homo sapiens, U-251, read-out: LC50 (the source's name)
  CC50: 4 µM
U251
  TGI: 1.85 µM
UACC-257; Homo sapiens
  GI50: 0.985 µM
UACC-257; [1]
  CC50: 4.88 µM
UACC-257
  TGI: 2.19 µM
KM12; Homo sapiens
  GI50: 1.03 µM
KM12; [1]
  CC50: 4.79 µM
KM12
  TGI: 2.22 µM
UACC-62; Homo sapiens
  GI50: 0.835 µM
UACC-62; [1]
  CC50: 3.09 µM
UACC-62
  TGI: 1.61 µM
IGROV1; Homo sapiens, IGROV-1, five-dose
  GI50: 1.04 µM
IGROV1; Homo sapiens, IGROV-1, five-dose, read-out: LC50 (the source's name)
  CC50: 19.1 µM
IGROV1; five-dose
  TGI: 4.85 µM
SK-OV-3; Homo sapiens
  GI50: 1.15 µM
SK-OV-3; [1]
  CC50: 17.2 µM
SK-OV-3
  TGI: 4.83 µM
MALME-3M; Homo sapiens, MALME-3M, five-dose
  GI50: 0.807 µM
MALME-3M; Homo sapiens, MALME-3M, five-dose, read-out: LC50 (the source's name)
  CC50: 8.84 µM
MALME-3M; MALME-3M (Melanoma), 1 dose 10 µM
  Growth %: −85.67%
MALME-3M; MALME-3M, five-dose
  TGI: 1.51 µM
